Measurements: ChEMBL document CHEMBL5291721, “A preclinical secondary pharmacology resource illuminates target-adverse drug reaction associations of marketed drugs” (Nat Commun, 2023)

Experiments:
Histamine H2 receptor = Histamine H2 receptor (Homo sapiens, UniProt P25021); format: functional, cell-based
[1] = molecular target: 5-hydroxytryptamine receptor 2B (Homo sapiens, UniProt P41595); format: functional, cell-based
[2] = molecular target: Neuronal acetylcholine receptor subunit alpha-4 (Homo sapiens, UniProt P43681)
Sequence of Neuronal acetylcholine receptor subunit alpha-4 (P43681 whole entry): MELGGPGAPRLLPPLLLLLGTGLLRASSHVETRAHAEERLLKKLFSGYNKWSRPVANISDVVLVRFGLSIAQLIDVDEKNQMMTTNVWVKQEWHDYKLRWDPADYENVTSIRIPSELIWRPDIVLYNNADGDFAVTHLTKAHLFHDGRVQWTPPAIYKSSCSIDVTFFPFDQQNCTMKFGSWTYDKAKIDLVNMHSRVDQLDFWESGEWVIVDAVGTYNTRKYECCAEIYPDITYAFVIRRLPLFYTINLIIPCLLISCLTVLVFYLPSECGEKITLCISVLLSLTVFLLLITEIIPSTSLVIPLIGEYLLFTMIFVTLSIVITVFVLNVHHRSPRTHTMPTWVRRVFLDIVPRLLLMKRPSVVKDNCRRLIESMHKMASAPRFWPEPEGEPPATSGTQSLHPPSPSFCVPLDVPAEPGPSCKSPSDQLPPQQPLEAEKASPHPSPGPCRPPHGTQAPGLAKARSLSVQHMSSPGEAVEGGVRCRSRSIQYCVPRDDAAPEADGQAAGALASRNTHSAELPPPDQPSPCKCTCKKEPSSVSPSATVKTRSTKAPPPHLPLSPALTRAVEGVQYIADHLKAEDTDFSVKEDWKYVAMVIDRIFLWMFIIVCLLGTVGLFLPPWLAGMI

Histamine H1 receptor = Histamine H1 receptor (Homo sapiens, UniProt P35367)
Sequence of Histamine H1 receptor (P35367 whole entry): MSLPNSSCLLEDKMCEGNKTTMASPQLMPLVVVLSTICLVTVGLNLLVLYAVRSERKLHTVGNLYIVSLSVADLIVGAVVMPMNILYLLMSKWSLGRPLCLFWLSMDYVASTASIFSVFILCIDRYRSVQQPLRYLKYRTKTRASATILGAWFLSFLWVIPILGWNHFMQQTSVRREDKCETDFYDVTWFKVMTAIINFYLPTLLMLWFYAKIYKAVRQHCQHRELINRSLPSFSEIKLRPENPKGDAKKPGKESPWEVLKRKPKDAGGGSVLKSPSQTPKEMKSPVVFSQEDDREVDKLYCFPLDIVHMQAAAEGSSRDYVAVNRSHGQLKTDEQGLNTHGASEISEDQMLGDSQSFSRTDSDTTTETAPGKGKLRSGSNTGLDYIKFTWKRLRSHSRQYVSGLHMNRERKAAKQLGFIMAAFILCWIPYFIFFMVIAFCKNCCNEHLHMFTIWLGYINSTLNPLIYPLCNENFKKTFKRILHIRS

[3] = molecular target: cGMP-inhibited 3',5'-cyclic phosphodiesterase 3A (Homo sapiens, UniProt Q14432); format: functional
Sequence of cGMP-inhibited 3',5'-cyclic phosphodiesterase 3A (Q14432 whole entry): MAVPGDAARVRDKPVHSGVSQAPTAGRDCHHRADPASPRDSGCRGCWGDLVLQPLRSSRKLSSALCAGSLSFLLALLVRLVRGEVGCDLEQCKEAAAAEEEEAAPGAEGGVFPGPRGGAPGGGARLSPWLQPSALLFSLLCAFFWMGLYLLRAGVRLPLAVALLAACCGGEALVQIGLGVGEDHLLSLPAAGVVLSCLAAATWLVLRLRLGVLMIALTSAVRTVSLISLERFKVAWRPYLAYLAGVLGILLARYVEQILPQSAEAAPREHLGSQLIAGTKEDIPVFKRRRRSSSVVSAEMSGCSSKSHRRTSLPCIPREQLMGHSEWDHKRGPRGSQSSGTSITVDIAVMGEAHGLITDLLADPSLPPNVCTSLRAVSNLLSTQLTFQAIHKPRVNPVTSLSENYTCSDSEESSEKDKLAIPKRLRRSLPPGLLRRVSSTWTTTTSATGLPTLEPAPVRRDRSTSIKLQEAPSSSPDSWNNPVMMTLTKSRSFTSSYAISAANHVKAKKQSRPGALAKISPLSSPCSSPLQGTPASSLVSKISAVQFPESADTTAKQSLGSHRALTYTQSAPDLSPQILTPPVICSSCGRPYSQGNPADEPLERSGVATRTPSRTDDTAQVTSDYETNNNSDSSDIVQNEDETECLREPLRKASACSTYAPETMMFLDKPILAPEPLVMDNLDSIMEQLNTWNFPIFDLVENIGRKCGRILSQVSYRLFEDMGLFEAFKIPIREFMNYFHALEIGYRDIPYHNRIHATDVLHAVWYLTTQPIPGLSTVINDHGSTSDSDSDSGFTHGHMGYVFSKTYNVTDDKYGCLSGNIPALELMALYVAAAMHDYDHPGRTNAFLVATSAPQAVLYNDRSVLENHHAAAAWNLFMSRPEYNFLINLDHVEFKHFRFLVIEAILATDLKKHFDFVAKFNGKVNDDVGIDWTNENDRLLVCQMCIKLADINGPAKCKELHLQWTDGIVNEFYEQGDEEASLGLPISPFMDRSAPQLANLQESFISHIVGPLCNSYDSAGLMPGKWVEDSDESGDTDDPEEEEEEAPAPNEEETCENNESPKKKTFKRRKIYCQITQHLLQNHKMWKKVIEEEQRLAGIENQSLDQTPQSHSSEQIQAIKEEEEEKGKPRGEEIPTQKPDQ

[4] = molecular target: T1, Type-1 angiotensin II receptor (Homo sapiens, UniProt P30556)
T1 sequence (P30556 whole entry): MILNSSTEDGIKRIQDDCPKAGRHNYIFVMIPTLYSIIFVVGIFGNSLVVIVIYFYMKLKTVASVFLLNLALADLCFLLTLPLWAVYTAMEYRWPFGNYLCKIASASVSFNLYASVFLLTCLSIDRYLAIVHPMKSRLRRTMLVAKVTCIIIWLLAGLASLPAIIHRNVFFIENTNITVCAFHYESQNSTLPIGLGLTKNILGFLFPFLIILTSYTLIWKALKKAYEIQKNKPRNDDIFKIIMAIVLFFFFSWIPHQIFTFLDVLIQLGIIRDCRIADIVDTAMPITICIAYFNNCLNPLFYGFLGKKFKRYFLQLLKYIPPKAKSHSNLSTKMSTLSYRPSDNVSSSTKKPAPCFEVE

[5] = molecular target: T2, Gastrin/cholecystokinin type B receptor (Homo sapiens, UniProt P32239)
T2 sequence (P32239 whole entry): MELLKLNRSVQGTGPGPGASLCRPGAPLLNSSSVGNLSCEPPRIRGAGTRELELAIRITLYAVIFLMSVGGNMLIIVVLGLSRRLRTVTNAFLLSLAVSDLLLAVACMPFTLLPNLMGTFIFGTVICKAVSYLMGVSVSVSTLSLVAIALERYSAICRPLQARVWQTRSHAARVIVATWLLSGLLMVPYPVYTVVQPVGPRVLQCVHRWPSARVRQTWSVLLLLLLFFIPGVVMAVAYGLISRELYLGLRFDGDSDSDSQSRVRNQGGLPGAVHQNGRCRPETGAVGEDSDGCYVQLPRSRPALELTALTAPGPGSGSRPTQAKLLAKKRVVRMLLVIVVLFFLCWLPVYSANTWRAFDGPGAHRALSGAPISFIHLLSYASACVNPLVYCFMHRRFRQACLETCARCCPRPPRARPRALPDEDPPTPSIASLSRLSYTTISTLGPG

[6] = molecular target: Growth hormone secretagogue receptor type 1 (Homo sapiens, UniProt Q92847)
Sequence of Growth hormone secretagogue receptor type 1 (Q92847 whole entry): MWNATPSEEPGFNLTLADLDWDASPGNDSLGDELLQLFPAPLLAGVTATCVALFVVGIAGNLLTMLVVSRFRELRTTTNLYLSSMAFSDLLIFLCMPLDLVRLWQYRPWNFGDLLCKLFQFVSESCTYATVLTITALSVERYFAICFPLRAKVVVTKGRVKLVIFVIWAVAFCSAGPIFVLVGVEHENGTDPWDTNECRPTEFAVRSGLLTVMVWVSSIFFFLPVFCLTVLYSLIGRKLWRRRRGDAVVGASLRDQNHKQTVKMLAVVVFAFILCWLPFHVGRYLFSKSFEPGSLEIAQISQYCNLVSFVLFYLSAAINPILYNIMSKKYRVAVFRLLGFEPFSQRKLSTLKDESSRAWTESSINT

[7] = molecular target: Gamma-aminobutyric acid receptor subunit alpha-1 (Rattus norvegicus, UniProt P62813); format: functional
Sequence of Gamma-aminobutyric acid receptor subunit alpha-1 (P62813 whole entry): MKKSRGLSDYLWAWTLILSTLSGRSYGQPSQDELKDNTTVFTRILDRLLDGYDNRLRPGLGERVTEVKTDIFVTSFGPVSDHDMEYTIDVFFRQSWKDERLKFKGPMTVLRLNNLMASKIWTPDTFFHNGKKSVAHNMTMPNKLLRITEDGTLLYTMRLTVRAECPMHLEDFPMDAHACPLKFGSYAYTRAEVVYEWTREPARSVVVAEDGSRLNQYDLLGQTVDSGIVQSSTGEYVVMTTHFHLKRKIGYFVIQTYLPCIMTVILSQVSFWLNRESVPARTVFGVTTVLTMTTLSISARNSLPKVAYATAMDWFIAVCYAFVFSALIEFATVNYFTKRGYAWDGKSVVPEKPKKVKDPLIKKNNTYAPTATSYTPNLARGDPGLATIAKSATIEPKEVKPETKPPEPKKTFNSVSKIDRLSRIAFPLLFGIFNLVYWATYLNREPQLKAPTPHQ

[8] = molecular target: Muscarinic acetylcholine receptor M3 (Homo sapiens, UniProt P20309)
[9] = molecular target: Sodium-dependent serotonin transporter (Homo sapiens, UniProt P31645)
Sequence of Sodium-dependent serotonin transporter (P31645 whole entry): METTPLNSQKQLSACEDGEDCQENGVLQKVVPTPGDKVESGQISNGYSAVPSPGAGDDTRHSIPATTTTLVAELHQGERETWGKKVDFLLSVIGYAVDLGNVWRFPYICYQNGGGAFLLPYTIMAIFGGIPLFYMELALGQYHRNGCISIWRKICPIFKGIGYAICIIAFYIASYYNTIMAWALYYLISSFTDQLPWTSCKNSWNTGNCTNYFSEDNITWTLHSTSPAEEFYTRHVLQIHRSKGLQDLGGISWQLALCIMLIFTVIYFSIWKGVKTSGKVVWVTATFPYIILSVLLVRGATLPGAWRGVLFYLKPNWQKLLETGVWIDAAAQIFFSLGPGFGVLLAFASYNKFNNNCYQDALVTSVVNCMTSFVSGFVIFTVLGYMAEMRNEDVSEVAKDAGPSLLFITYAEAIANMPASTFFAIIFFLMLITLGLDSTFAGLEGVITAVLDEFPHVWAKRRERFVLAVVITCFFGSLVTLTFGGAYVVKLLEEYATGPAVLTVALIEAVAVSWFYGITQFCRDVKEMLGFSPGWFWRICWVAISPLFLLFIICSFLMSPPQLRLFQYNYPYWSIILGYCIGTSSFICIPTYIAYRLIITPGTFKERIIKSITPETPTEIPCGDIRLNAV

[10] = molecular target: Delta-type opioid receptor (Homo sapiens, UniProt P41143)
Sequence of Delta-type opioid receptor (P41143 whole entry): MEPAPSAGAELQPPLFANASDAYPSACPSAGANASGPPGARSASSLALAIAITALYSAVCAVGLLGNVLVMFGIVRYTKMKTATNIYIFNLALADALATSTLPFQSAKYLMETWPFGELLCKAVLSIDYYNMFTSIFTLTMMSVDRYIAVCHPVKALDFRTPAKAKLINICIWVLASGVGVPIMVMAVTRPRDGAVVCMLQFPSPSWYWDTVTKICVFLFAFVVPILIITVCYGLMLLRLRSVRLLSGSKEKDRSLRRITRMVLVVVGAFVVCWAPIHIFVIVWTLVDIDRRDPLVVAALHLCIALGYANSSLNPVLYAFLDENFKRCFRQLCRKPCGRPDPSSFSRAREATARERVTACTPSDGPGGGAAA

[11] = molecular target: T3, 5-hydroxytryptamine receptor 1A (Homo sapiens, UniProt P08908); format: functional, cell-based
T3 sequence (P08908 whole entry): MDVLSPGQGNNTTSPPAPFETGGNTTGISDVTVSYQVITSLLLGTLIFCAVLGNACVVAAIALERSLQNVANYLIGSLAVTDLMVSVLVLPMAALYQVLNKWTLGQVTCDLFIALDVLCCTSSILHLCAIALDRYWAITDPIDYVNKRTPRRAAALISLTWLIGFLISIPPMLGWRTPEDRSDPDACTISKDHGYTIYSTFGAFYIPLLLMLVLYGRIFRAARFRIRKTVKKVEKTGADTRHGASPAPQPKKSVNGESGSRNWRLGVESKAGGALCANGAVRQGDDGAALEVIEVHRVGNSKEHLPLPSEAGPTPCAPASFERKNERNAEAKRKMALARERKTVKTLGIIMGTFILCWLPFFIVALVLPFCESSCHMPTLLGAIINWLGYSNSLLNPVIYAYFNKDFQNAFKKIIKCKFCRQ

[12] = molecular target: T4, Alpha-2A adrenergic receptor (Homo sapiens, UniProt P08913); format: functional, cell-based
T4 sequence (P08913 whole entry): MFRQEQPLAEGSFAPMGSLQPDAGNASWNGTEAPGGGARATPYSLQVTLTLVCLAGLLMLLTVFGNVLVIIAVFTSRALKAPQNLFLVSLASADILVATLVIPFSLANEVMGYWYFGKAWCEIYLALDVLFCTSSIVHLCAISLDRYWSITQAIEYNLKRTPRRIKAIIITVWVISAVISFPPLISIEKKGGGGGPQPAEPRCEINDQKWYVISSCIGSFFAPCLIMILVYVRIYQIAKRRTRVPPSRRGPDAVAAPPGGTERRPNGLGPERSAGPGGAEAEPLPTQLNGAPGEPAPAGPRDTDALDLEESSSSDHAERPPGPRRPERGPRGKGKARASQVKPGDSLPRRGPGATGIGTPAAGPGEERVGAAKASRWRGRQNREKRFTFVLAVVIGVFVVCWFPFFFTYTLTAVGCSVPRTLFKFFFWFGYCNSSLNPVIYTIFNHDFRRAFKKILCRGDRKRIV

D(1A) dopamine receptor = D(1A) dopamine receptor (Homo sapiens, UniProt P21728); format: functional, cell-based
Sequence of D(1A) dopamine receptor (P21728 whole entry): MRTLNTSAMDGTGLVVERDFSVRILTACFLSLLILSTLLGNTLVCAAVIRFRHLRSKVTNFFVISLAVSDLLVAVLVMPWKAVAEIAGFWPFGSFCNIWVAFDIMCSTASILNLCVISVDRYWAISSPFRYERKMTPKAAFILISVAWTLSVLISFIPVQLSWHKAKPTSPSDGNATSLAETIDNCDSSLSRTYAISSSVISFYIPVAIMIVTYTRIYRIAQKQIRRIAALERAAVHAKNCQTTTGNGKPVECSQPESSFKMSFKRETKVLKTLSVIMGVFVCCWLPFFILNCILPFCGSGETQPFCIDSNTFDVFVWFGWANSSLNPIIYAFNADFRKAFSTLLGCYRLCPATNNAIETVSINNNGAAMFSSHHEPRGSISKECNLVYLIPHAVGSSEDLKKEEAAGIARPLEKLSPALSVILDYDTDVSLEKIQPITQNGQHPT

Mu-type opioid receptor = Mu-type opioid receptor (Homo sapiens, UniProt P35372); assay: biochemical; format: functional
[13] = molecular target: T5, Muscarinic acetylcholine receptor M2 (Homo sapiens, UniProt P08172); format: functional, cell-based
T5 sequence (P08172 whole entry): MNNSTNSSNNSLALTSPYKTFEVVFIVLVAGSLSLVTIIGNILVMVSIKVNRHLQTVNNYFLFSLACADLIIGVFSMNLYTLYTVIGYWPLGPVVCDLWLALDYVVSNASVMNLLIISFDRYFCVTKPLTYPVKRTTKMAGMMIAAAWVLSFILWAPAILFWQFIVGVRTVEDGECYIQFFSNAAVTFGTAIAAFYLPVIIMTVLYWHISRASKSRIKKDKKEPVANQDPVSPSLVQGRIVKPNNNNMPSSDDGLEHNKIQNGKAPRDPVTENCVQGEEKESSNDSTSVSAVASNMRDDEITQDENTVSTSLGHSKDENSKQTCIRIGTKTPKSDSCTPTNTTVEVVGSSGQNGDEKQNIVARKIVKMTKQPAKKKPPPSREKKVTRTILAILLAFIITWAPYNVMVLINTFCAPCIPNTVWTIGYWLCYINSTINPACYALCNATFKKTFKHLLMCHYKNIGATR
Note: assay procedure not described here.

Sequence of 5-hydroxytryptamine receptor 2B (P41595 whole entry): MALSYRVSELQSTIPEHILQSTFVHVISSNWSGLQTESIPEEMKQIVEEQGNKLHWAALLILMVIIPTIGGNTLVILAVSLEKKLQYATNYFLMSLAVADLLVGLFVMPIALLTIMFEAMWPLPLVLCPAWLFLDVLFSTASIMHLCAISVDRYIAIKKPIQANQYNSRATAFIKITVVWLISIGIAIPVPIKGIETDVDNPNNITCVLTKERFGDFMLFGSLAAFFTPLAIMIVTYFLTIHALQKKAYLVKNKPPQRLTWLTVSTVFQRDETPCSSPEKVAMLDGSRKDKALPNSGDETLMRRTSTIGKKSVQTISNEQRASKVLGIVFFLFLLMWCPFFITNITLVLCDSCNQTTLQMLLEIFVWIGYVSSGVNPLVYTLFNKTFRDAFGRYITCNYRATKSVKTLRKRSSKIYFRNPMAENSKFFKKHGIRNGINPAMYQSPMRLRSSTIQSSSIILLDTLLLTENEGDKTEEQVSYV

Structure (SMILES) | AC50 (Histamine H2 receptor) [µM] | AC50 [1] [µM] | AC50 [2] [µM] | AC50 (Histamine H1 receptor) [µM] | AC50 [3] [µM] | AC50 [4] [µM] | AC50 [5] [µM] | AC50 [6] [µM] | AC50 [7] [µM] | AC50 [8] [µM] | AC50 [9] [µM] | AC50 [10] [µM] | AC50 [11] [µM] | AC50 [12] [µM] | AC50 (D(1A) dopamine receptor) [µM] | AC50 (Mu-type opioid receptor) [µM] | AC50 [13] [µM]
COc1cc2c(N)nc(N3CCN(C(=O)OCC(C)(C)O)CC3)nc2c(OC)c1OC [TRIMAZOSIN] | > 30 | > 30 | > 30 | > 30 | > 30 | > 30 | > 30 | > 30 | > 30 | > 30 | > 30 | > 30 | > 30 | > 30 | > 30 | > 30 | > 30
CC(=O)OCC(=O)[C@@]12N=C(C)O[C@@H]1C[C@H]1[C@@H]3CCC4=CC(=O)C=C[C@]4(C)[C@H]3[C@@H](O)C[C@@]12C [DEFLAZACORT] | > 30 | > 30 | > 30 | > 30 | > 30 | > 30 | > 30 | > 30 | > 30 | > 30 | > 30 | > 30 | > 30 | > 30 | > 30 | > 30 | > 30

The next lines start with the values.

AC50 (Histamine H2 receptor) [µM] | AC50 [1] [µM] | AC50 [2] [µM] | AC50 (Histamine H1 receptor) [µM] | AC50 [3] [µM] | AC50 [4] [µM] | AC50 [5] [µM] | AC50 [6] [µM] | AC50 [7] [µM] | AC50 [8] [µM] | AC50 [9] [µM] | AC50 [10] [µM] | AC50 [11] [µM] | AC50 [12] [µM] | AC50 (D(1A) dopamine receptor) [µM] | AC50 (Mu-type opioid receptor) [µM] | AC50 [13] [µM] | Structure (SMILES)
> 30 | > 30 | > 30 | 16 | > 10 | > 30 | > 30 | > 30 | > 30 | > 30 | 29 | > 30 | > 30 | 9.1 | > 30 | > 30 | > 30 | COc1ccccc1OCCNCC(O)c1ccc(C)c(S(N)(=O)=O)c1 (stereo not given) [AMOSULALOL]
> 30 | > 30 | > 30 | > 30 | > 30 | > 30 | > 30 | > 30 | > 30 | > 30 | 30 | > 30 | > 30 | > 30 | > 30 | > 30 | > 30 | O=C(O)C1=C(CSc2nnnn2CS(=O)(=O)O)CS[C@@H]2[C@H](NC(=O)[C@H](O)c3ccccc3)C(=O)N12 [CEFONICID]
> 30 | > 30 | > 30 | > 30 | > 30 | > 30 | > 30 | > 30 | > 30 | > 30 | > 10 | > 30 | > 30 | > 30 | > 30 | > 30 | > 30 | CC(C)(C)C(=O)Oc1ccc(S(=O)(=O)Nc2ccccc2C(=O)NCC(=O)O)cc1
